Measured values reported in PubChem BioAssay AID330 (DTP/NCI, 2004).
Several values for one entry are separate records, joined by “and”; a condition that tells them apart may be missing. Equal entries are not always repeated. Toxic doses and inconclusive results are not listed. Rule for the calls: active = survival T/C of 150% or more; inactive = T/C below 125% in these data. Peptide text beside a SMILES is read from it. * marks the point of attachment. Cbz = O=C(OCc1ccccc1)*; OBn = c1ccc(CO*)cc1

Test system: P388 leukemia ip, CD2F1 mice, survival T/C
Test: NCI In Vivo Anticancer Drug Screen. Data for tumor model P388 Leukemia (intraperitoneal) in CD2F1 (CDF1) mice
Conditions: endpoint: median survival time, higher = longer survival
Summary of the method: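 Mice carrying the transplanted tumor received test compound or vehicle. Survival was recorded in each group, and the value is the treated-group measurement divided by that of the vehicle-treated control group.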

[1] = dose: 50.0 mg/kg/injection, schedule: Q01DX005 (ip), vehicle: Klucel (hydroxypropylcellulose) (HPC)
[2] = dose: 100.0 mg/kg/injection, schedule: Q01DX005 (ip), vehicle: Klucel (hydroxypropylcellulose) (HPC)
[3] = dose: 200.0 mg/kg/injection, schedule: Q01DX005 (ip), vehicle: Klucel (hydroxypropylcellulose) (HPC)
[4] = dose: 12.5 mg/kg/injection, schedule: Q01DX009 (ip), vehicle: saline with Tween-80
[5] = dose: 25.0 mg/kg/injection, schedule: Q01DX009 (ip), vehicle: saline with Tween-80
[6] = dose: 50.0 mg/kg/injection, schedule: Q01DX009 (ip), vehicle: saline with Tween-80

Measured: T/C

Cc1[nH]nc2c(=O)n(C)cnc12
inactive: dose: 25.0 mg/kg/injection, schedule: Q01DX005 (ip), vehicle: water 100 % of control | dose: 50.0 mg/kg/injection, schedule: Q01DX005 (ip), vehicle: water 94 % of control | dose: 100.0 mg/kg/injection, schedule: Q01DX005 (ip), vehicle: water 92 % of control | dose: 200.0 mg/kg/injection, schedule: Q01DX005 (ip), vehicle: water 93 % of control | dose: 400.0 mg/kg/injection, schedule: Q01DX005 (ip), vehicle: water 91 % of control

CC(=O)NC(Cn1cc(C(N)=O)ccc1=N)C(=O)O (configuration not stated)
inactive: dose: 1.56 mg/kg/injection, schedule: Q01DX005 (ip), vehicle: Klucel (hydroxypropylcellulose) (HPC) 102 % of control | dose: 3.12 mg/kg/injection, schedule: Q01DX005 (ip), vehicle: Klucel (hydroxypropylcellulose) (HPC) 108 % of control and 114 % of control | dose: 6.25 mg/kg/injection, schedule: Q01DX005 (ip), vehicle: Klucel (hydroxypropylcellulose) (HPC) 115 % of control and 122 % of control | dose: 12.5 mg/kg/injection, schedule: Q01DX005 (ip), vehicle: Klucel (hydroxypropylcellulose) (HPC) 121 % of control

C/C(=N\N=P(c1ccccc1)(c1ccccc1)c1ccccc1)C(C)(C)C
inactive: dose: 6.25 mg/kg/injection, schedule: Q01DX009 (ip), vehicle: Klucel (hydroxypropylcellulose) (HPC) 100 % of control | dose: 12.5 mg/kg/injection, schedule: Q01DX009 (ip), vehicle: Klucel (hydroxypropylcellulose) (HPC) 95 % of control | dose: 25.0 mg/kg/injection, schedule: Q01DX009 (ip), vehicle: Klucel (hydroxypropylcellulose) (HPC) 94 % of control

Cc1ncc(Br)c(C(=O)N=C(N)N)n1
inactive: [1] 95 % of control | [2] 100 % of control | [3] 94 % of control

COc1ccc(CC(C(=O)NN)S(=O)(=O)NC(C)(C)C)cc1OC (configuration not stated)
inactive: dose: 100.0 mg/kg/injection, schedule: Q04DX003 (ip), vehicle: Klucel (hydroxypropylcellulose) (HPC) 98 % of control | dose: 200.0 mg/kg/injection, schedule: Q04DX003 (ip), vehicle: Klucel (hydroxypropylcellulose) (HPC) 98 % of control | dose: 400.0 mg/kg/injection, schedule: Q04DX003 (ip), vehicle: Klucel (hydroxypropylcellulose) (HPC) 95 % of control

CN(C)C(=O)NO
inactive: dose: 60.0 mg/kg/injection, schedule: Q01DX005 (ip), vehicle: saline 103 % of control | dose: 120.0 mg/kg/injection, schedule: Q01DX005 (ip), vehicle: saline 99 % of control | dose: 240.0 mg/kg/injection, schedule: Q01DX005 (ip), vehicle: saline 97 % of control

C[n+]1cccc(C(=S)[S-])c1
inactive: [4] 100 % of control | [5] 95 % of control | [6] 90 % of control

O=C(NC(CO)C(=O)N1CCCC1C(=O)OCc1ccccc1)OCc1ccccc1 (stereo not drawn) (Cbz-Ser-Pro-OBn; configuration not given here)
inactive: [1] 96 % of control | [2] 93 % of control | [3] 92 % of control

CNP(=O)(N(C)C)N(C)C
inactive: dose: 50.0 mg/kg/injection, schedule: Q01DX009 (ip), vehicle: saline 96 % of control | dose: 100.0 mg/kg/injection, schedule: Q01DX009 (ip), vehicle: saline 98 % of control | dose: 200.0 mg/kg/injection, schedule: Q01DX009 (ip), vehicle: saline 106 % of control

Cc1c(-c2ccccc2)sc(/N=C/c2cc(Br)cc(Br)c2O)c1C#N
inactive: [4] 99 % of control | [5] 98 % of control | [6] 100 % of control | dose: 100.0 mg/kg/injection, schedule: Q01DX009 (ip), vehicle: saline with Tween-80 99 % of control

O=S(=O)(O)c1ccc(CCCCCCl)cc1
inactive: dose: 100.0 mg/kg/injection, schedule: Q04DX003 (ip), vehicle: saline 100 % of control | dose: 200.0 mg/kg/injection, schedule: Q04DX003 (ip), vehicle: saline 95 % of control | dose: 400.0 mg/kg/injection, schedule: Q04DX003 (ip), vehicle: saline 86 % of control
